The conditions of data set [1]: CYP2D6 inhibited by administering quinidine; cited from earlier work.
Data set [2] can be described thus: Example 3 / FIG. 1: effect of CYP2D6 poor metabolizer status on pharmacokinetics of the tablet after 8 days of twice daily dosing. The following applies: tablet 45 mg dextromethorphan hydrobromide/105 mg bupropion hydrochloride, 8 days twice daily; reference extensive or ultra-extensive CYP2D6 metabolizers; GMR.
A short description of data set [3]: Inventor's clinical-trial finding: plasma levels in CYP2D6 poor metabolizers vs other patients after combination of bupropion and dextromethorphan. The following applies: combination of bupropion and dextromethorphan administered.
Data set [4] can be described thus: Solubility in water of the drug substance powder.
Data set [5] deals with patients with agitation associated with Alzheimer's disease. Nature of the data set: Phase 2/3 randomized, double-blind, controlled clinical trial of DM/BU in agitation associated with Alzheimer's disease. It is filed as in vivo, human. As for the experimental part:
A Phase ⅔ randomized, double-blind, controlled, multicenter, U.S. clinical trial was conducted to evaluate the efficacy and safety of DM/BU in patients with agitation associated with Alzheimer's disease. […] An independent data monitoring committee performed an interim futility analysis and recommended no further randomization to the bupropion arm. Subsequently, patients were randomized in a 1:1 ratio to receive DM/BU or placebo. […] The minimum score on the CMAI is 29, corresponding to the total absence of symptoms, with higher scores corresponding to greater agitation. The primary endpoint of the study was the change from baseline in the CMAI total score at Week 5. P-values were calculated based on least square mean estimates.
Inclusion criteria included male or female […], diagnosis of probable Alzheimer's disease, according to the 2011 NIA-AA criteria, diagnosis of agitation, according to the IPA provisional definition of agitation, MMSE score between 10 and 24, an NPI-AA score≥4, and community dwelling. Exclusion criterial included dementia of non-Alzheimer's type and current use of a selective serotonin reuptake inhibitor and/or a serotonin and norepinephrine inhibitor (SSRI/SNRI). Demographics and baseline characteristics are shown in Table 9 of U.S. Pat. No. 10,898,453.

Results on four molecules are retold here after patent US12599576B2 (ANTECIP BIOVENTURES II LLC, priority 2022, dated 2026).

On to `COc1ccc2c(c1)[C@]13CCCC[C@@H]1[C@H](C2)N(C)CC3` [dextromethorphan], for which, in data set [1], the “AUC0-12 of dextromethorphan higher for CYP2D6 poor metabolizers compared to non-poor metabolizers” value is reported as “about 46%” and the “Cmax of dextromethorphan higher for poor metabolizers compared to non-poor metabolizers” value was “about 40%”. Further, in data set [2], the “increase in dextromethorphan AUC0-12 for CYP2D6 poor metabolizers” value came out at 3.40 fold and the “increase in dextromethorphan Cmax for CYP2D6 poor metabolizers” value turned out to be 3.00 fold. Moreover, the “Cmax and AUC of dextromethorphan in poor metabolizers vs patients who are not poor metabolizers” value in data set [3] is recorded as “significantly higher”.

Turning to `Br.COc1ccc2c(c1)[C@]13CCCC[C@@H]1[C@H](C2)N(C)CC3` [Dextromethorphan hydrobromide, morphinan, 3-methoxy-17-methyl-, (9α, 13α, 14α), hydrobromide monohydrate], the solubility in water entry in data set [4] was “sparingly soluble in water”.

As for `CC(NC(C)(C)C)C(=O)c1cccc(Cl)c1.Cl` (racemic) [Bupropion hydrochloride, (±)-1-(3-chlorophenyl)-2-[(1,1-dimethylethyl)amino]-1-propanone hydrochloride], the solubility in water result in data set [4] is on record as “highly soluble in water”.

As for `CC(NC(C)(C)C)C(=O)c1cccc(Cl)c1` (centres unmarked) [bupropion], in data set [5] (Week 5 (primary endpoint), placebo 11.5, DM/BU vs placebo p=0.010), the “mean reduction from baseline in CMAI total score” value was determined as 10.0 points. Also, in data set [5] (both, human, in vivo, 5 weeks), the “adverse event: diarrhea” value came out at 6.1%, the “adverse event: dizziness” value came out at 10.2%, the “adverse event: somnolence” value came out at 4.1% and the “rate of discontinuation due to adverse events” value is 2.0%. Besides, in data set [5] (both, human, in vivo, 5 weeks), the “serious adverse events reported, patients” value turned out to be 8.2%. Moreover, the deaths in arm entry in data set [5] (one death in the placebo arm) was “one”.
